pIC50: −log10 of the molar value.

Holding throughout (type): functional
Assay [1] in a line: Antioxidant activity assessed as nitric oxide radical scavenging activity.
Assay [2] is described as follows: Antioxidant activity assessed as superoxide radical scavenging activity.
The subject of assay [3] is Radical scavenging activity. In words: Antioxidant activity assessed as DPPH free radical scavenging activity.
Assay [4] is described as follows: Antioxidant activity assessed as peroxy nitrite free radical scavenging activity.

What is called pIC50 is −log10 of the IC50, conventionally taken in molar units. With `CC1(C)N([O])C(c2ccc(C(=O)O)cc2)=[N+]([O-])C1(C)C`, the negative logarithm of the IC50 (pIC50) in assay [1] is 3.86.
In the case of `OCc1cc(O)c(O)c(Cl)c1`, the pIC50 was 4.96 in assay [2], 6.30 in assay [1], 6.22 in assay [3] and 5.51 in assay [4].
For `OCc1cc(O)ccc1O` [GENTISYL ALCOHOL], the pIC50 in assay [2] is under 4.30; in assay [1] it was 6.40; in assay [3], 5.85; in assay [4], 5.66.
For `O=C1C=C(CO)[C@H](O)[C@@H]2O[C@H]12` [PARASITENONE], the negative logarithm of the IC50 (pIC50) in assay [3] is 4.24; in assay [4], 4.28.

The values above are taken from ChEMBL document CHEMBL1156408, “Parasitenone, a new epoxycyclohexenone related to gabosine from the marine-derived fungus Aspergillus parasiticus” (J Nat Prod, 2002).
